Results taken from PubChem BioAssay (NCI).
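Briefly, cells in 96-well plates were exposed to five compound concentrations for 48 h, and endpoints were estimated by linear interpolation. GI50 marks 50% less growth. TGI marks complete inhibition of growth.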

Experiments:
Assay in all cases: NCI-60 cell line screen, 48 h; in the data active means GI50 below about 0.43 µM; inactive means the rest
786-0 renal = test system: 786-0 renal
A498 renal = test system: A498 renal
A549 NSCLC = test system: A549 NSCLC
ACHN renal = test system: ACHN renal
CCRF-CEM leukemia = test system: CCRF-CEM leukemia
DU-145 prostate = test system: DU-145 prostate
HCC-2998 colon = test system: HCC-2998 colon
HL-60(TB) leukemia = test system: HL-60(TB) leukemia
HOP-62 NSCLC = test system: HOP-62 NSCLC
HOP-92 NSCLC = test system: HOP-92 NSCLC
HS 578T breast = test system: HS 578T breast
HT29 colon = test system: HT29 colon
IGROV1 ovarian = test system: IGROV1 ovarian
KM12 colon = test system: KM12 colon
M14 melanoma = test system: M14 melanoma
MALME-3M melanoma = test system: MALME-3M melanoma
MCF7 breast = test system: MCF7 breast
MDA-MB-231 breast = test system: MDA-MB-231 breast
MDA-MB-435 = test system: MDA-MB-435
MOLT-4 leukemia = test system: MOLT-4 leukemia
NCI-H226 lung = test system: NCI-H226 lung
NCI-H460 lung = test system: NCI-H460 lung
NCI-H522 lung = test system: NCI-H522 lung
NCI/ADR-RES ovarian = test system: NCI/ADR-RES ovarian
OVCAR-3 ovarian = test system: OVCAR-3 ovarian
OVCAR-4 ovarian = test system: OVCAR-4 ovarian
OVCAR-5 ovarian = test system: OVCAR-5 ovarian
OVCAR-8 ovarian = test system: OVCAR-8 ovarian
PC-3 prostate = test system: PC-3 prostate
RXF 393 renal = test system: RXF 393 renal
SF-268 CNS = test system: SF-268 CNS
SF-295 CNS = test system: SF-295 CNS
SF-539 CNS = test system: SF-539 CNS
SK-MEL-2 melanoma = test system: SK-MEL-2 melanoma
SK-MEL-28 melanoma = test system: SK-MEL-28 melanoma
SK-MEL-5 melanoma = test system: SK-MEL-5 melanoma
SK-OV-3 ovarian = test system: SK-OV-3 ovarian
SN12C renal = test system: SN12C renal
SNB-19 CNS = test system: SNB-19 CNS
SNB-75 CNS = test system: SNB-75 CNS
SW-620 colon = test system: SW-620 colon
TK-10 renal = test system: TK-10 renal
U251 CNS = test system: U251 CNS
UACC-257 melanoma = test system: UACC-257 melanoma
UACC-62 melanoma = test system: UACC-62 melanoma
UO-31 renal = test system: UO-31 renal

CC(=O)/C=C/c1ccc(OCc2ccc(C(C)(C)C)cc2)cc1
> 1000 µM: TGI (786-0 renal) | TGI (A498 renal) | TGI (A549 NSCLC) | TGI (ACHN renal) | TGI (CCRF-CEM leukemia) | TGI (DU-145 prostate) | TGI (HCC-2998 colon) | TGI (HL-60(TB) leukemia) | TGI (HOP-62 NSCLC) | TGI (HOP-92 NSCLC) | TGI (HS 578T breast) | TGI (HT29 colon) | TGI (IGROV1 ovarian) | TGI (KM12 colon) | TGI (M14 melanoma) | TGI (MALME-3M melanoma) | TGI (MCF7 breast) | TGI (MDA-MB-231 breast) | TGI (MDA-MB-435) | TGI (MOLT-4 leukemia) | TGI (NCI-H226 lung) | TGI (NCI-H460 lung) | TGI (NCI-H522 lung) | TGI (NCI/ADR-RES ovarian) | TGI (OVCAR-3 ovarian) | TGI (OVCAR-4 ovarian) | TGI (OVCAR-5 ovarian) | TGI (OVCAR-8 ovarian) | TGI (PC-3 prostate) | TGI (RXF 393 renal) | TGI (SF-268 CNS) | TGI (SF-295 CNS) | TGI (SF-539 CNS) | TGI (SK-MEL-2 melanoma) | TGI (SK-MEL-28 melanoma) | TGI (SK-MEL-5 melanoma) | TGI (SK-OV-3 ovarian) | TGI (SN12C renal) | TGI (SNB-19 CNS) | TGI (SNB-75 CNS) | TGI (SW-620 colon) | TGI (TK-10 renal) | TGI (U251 CNS) | TGI (UACC-257 melanoma) | TGI (UACC-62 melanoma) | TGI (UO-31 renal)
inactive: GI50 (786-0 renal) > 1000 µM | GI50 (A498 renal) > 1000 µM | GI50 (A549 NSCLC) > 1000 µM | GI50 (ACHN renal) > 1000 µM | GI50 (CCRF-CEM leukemia) > 1000 µM | GI50 (DU-145 prostate) > 1000 µM | GI50 (HCC-2998 colon) > 1000 µM | GI50 (HL-60(TB) leukemia) > 1000 µM | GI50 (HOP-62 NSCLC) > 1000 µM | GI50 (HOP-92 NSCLC) > 1000 µM | GI50 (HS 578T breast) > 1000 µM | GI50 (HT29 colon) 40.7 µM | GI50 (IGROV1 ovarian) > 1000 µM | GI50 (KM12 colon) > 1000 µM | GI50 (M14 melanoma) > 1000 µM | GI50 (MALME-3M melanoma) > 1000 µM | GI50 (MCF7 breast) > 1000 µM | GI50 (MDA-MB-231 breast) > 1000 µM | GI50 (MDA-MB-435) > 1000 µM | GI50 (MOLT-4 leukemia) > 1000 µM | GI50 (NCI-H226 lung) > 1000 µM | GI50 (NCI-H460 lung) > 1000 µM | GI50 (NCI-H522 lung) > 1000 µM | GI50 (NCI/ADR-RES ovarian) > 1000 µM | GI50 (OVCAR-3 ovarian) > 1000 µM | GI50 (OVCAR-4 ovarian) > 1000 µM | GI50 (OVCAR-5 ovarian) > 1000 µM | GI50 (OVCAR-8 ovarian) > 1000 µM | GI50 (PC-3 prostate) > 1000 µM | GI50 (RXF 393 renal) > 1000 µM | GI50 (SF-268 CNS) > 1000 µM | GI50 (SF-295 CNS) > 1000 µM | GI50 (SF-539 CNS) > 1000 µM | GI50 (SK-MEL-2 melanoma) > 1000 µM | GI50 (SK-MEL-28 melanoma) > 1000 µM | GI50 (SK-MEL-5 melanoma) 46.5 µM | GI50 (SK-OV-3 ovarian) > 1000 µM | GI50 (SN12C renal) > 1000 µM | GI50 (SNB-19 CNS) > 1000 µM | GI50 (SNB-75 CNS) > 1000 µM | GI50 (SW-620 colon) > 1000 µM | GI50 (TK-10 renal) > 1000 µM | GI50 (U251 CNS) > 1000 µM | GI50 (UACC-257 melanoma) > 1000 µM | GI50 (UACC-62 melanoma) > 1000 µM | GI50 (UO-31 renal) > 1000 µM
